Measured values from US8324161B2, “Leukotriene B4 binding soluble lipocalin receptor from ixodes ricinus” (Universite Libre de Bruxelles, priority 2007, dated 2012).

Assays:
[1] = system: LTB4-LIR polypeptide; assay: inhibition by eicosanoids of [3H]LTB4 binding to LTB4-LIR polypeptide; parameters: species or system Ixodes ricinus; conditions: for inhibition of 1 nM [3H]LTB4 binding to LTB4-LIR polypeptide: eicosanoid at a concentration of 10 μM, FIG. 4
Procedure: (§1) The polypeptide according to the invention was therefore tested for its ability to bind specifically leukotriene B4. The affinity-purified LTB4-LIR polypeptide was tested in binding assays according to a previously described method (Warlow, R. S., and Bernard, C. C. A. (1987). Solubilization and characterization of moderate and high affinity histamine binding sites on human blood mononuclear cells. Mol. Immunol. 24, 27-37).
(§2) The inhibition by various eicosanoids of [3H]LTB4 binding to LTB4-LIR polypeptide was also examined. […] Next, various concentrations of LTA4, LTB4, LTC4, LTD4, HETE, HPETE, and LXA4 was tested in the competition with [3H]LTB4 binding to LTB4-LIR polypeptide.

[2] = system: neutrophils; assay: transendothelial migration of neutrophils stimulated by LTB4 through Ea.hy926 endothelial cell layer; assay type: cell-based, human; conditions: 2 hours at 37° C.; neutrophils from three volunteers, in triplicate; FIG. 6
Procedure: The principal LTB4 function is the chemo-attraction of neutrophils to the sub-endothelial spaces of an inflammation site. One step of this process is the diapedesis of the neutrophils through the endothelial cells layer. The chemo-attractant effect of LTB4-LIR6 was tested by using a model of transendothelial migration of neutrophils.
Ea.hy926 cells, an endothelial cell line derived from the human umbilical vein, were used. These cells closely resemble HUVEC and maintain several characteristics of differentiated endothelium. The cells were allowed to reach confluence in chamber containing DMEM (Cambrex, Vervier, Belgium), supplemented with 10% Fetal Calf Serum, 2 mM L-Glutamine, 100 U/ml penicillin, 100 μg/ml streptomycin and HAT ([…], 0.4 μM aminopterin, 16 μM thymidine). […]
In the transendothelial assay, the protocol described by Nohgawa et al. was used (Nohgawa M., Sasada M., Maeda A., Asagoe K., Harakawa N., Takano K., Yamamoto K., Okuma M. Leukotriene B4-activated human endothelial cells promote transendothelial neutrophil migration. J Leuc. Biol, 1997 (62): 203-209). […] After 2 hours at 37° C., the upper chambers were removed and cells in lower chambers were counted. […]

[3] = saturation binding of [3H]LTB4 to affinity-purified LTB4-LIR polypeptide
Procedure: as §1, §2

CCCCC/C=C\C\C=C/C=C/C=C/[C@@H](SC[C@H](N)C(=O)O)[C@@H](O)CCCC(=O)O [LTE4]
inhibition of 1 nM [3H]LTB4 binding to LTB4-LIR polypeptide [1]: significant competitions

CCCCC/C=C\C[C@@H](O)/C=C/C=C/C=C\[C@@H](O)CCCC(=O)O [LTB4, leukotriene B4]
inhibition of 1 nM [3H]LTB4 binding to LTB4-LIR polypeptide [1]: significant competitions | competition with [3H]LTB4 binding to LTB4-LIR polypeptide at various concentrations ([1]; various concentrations, FIG. 5): dose-dependent inhibition

CCCCC/C=C\C\C=C/C=C/C=C/[C@@H](SC[C@H](N)C(=O)NCC(=O)O)[C@@H](O)CCCC(=O)O [LTD4]
inhibition of 1 nM [3H]LTB4 binding to LTB4-LIR polypeptide [1]: significant competitions

CCCCC/C=C\C[C@@H](O)/C=C/C=C\C/C=C\CCCC(=O)O [12(R)-HETE]
inhibition of 1 nM [3H]LTB4 binding to LTB4-LIR polypeptide [1]: significant competitions

B1: LTB4-LIR polypeptide: Leukotriene B4 binding Lipocalin from Ixodes ricinus, amino acid sequence SEQ ID NO: 2, expressed with V5-6×His tag in a baculovirus system (protein, listed as Ixodes ricinus)
chain: MLRIAVVAALCCFGTGTVSRFQQNATERHYQELNSNLSKYQDAWKSNTENAEYVLAYRTFQDIERTRIRRCVSATLRYKNKKNRTTVHRLRYYNTRDRKWEGHSVLTRFNATPGYTVPNLMLMSSYHNESDEGRLYWTLYSQYGSCNIVRVERNGGCELWVRKGLQDYISSCCWFIYKSYCGNENYQIYNTTYCKRKGPE
modifications: V5-6×His tag
effect on the transendothelial migration of neutrophils stimulated by LTB4 [2]: significant dose-response effect | Kd ([3]; FIG. 3, read-out: Kd value of specific and saturable binding for [3H]LTB4): 0.4 nM | Kd lower than that for human BLT1 membrane receptor ([3]; compared with literature Kd of human BLT1 (Yokomizo et al. 2001)): about 5 fold | Kd lower than that for human BLT2 membrane receptor ([3]; compared with literature Kd of human BLT2 (Yokomizo et al. 2001)): about 60 fold
